Measured values reported in ChEMBL document CHEMBL1148255, “Facile synthesis of fused 1,2,4-triazolo[1,5-c]pyrimidine derivatives as human adenosine A3 receptor ligands” (Bioorg Med Chem Lett, 2004).

Biological target: Adenosine receptor A2a (Homo sapiens, UniProt P29274)
Experiment: biochemical

Chain of Adenosine receptor A2a (P29274 whole entry): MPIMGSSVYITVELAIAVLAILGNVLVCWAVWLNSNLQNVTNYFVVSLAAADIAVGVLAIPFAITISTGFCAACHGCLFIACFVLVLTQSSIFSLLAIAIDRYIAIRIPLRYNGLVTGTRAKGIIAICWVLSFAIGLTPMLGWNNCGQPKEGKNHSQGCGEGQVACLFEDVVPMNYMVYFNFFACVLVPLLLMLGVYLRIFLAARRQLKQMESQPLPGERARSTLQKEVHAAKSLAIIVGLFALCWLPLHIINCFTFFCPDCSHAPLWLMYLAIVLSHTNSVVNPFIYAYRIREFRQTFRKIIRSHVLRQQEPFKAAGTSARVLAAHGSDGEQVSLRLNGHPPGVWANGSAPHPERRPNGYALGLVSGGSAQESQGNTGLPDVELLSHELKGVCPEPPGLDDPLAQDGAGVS

IC50 [µM] | Compound
> 10 | CCCCc1nc2[nH]cnc2c2nc(-c3ccc(C(F)(F)F)cc3)nn12
